In patent publication US11529344B2, “EZH2 inhibitor combination therapies” (Pfizer Inc., priority 2017, dated 2022):

Tested on: DMS114 SCLC xenograft
Excerpt: • (i) Compound Formulation: Compound 1 was formulated as a wet-milled nanosuspension (24 hr milling in 2.5% w/v polyvinyl pyrrolidone (PVP), 0.5% w/v Macrogol 15 Hydroxystearate (Kolliphor HS15) aqueous, with <1 μm particle-size distribution (PSD; ˜650 nm median diameter (d50)) for oral gavage administration. • (ii) Cell Implant, Compound Dosing and Tissue Collection: Immune deficient female mice with a severe combined immunodeficiency (SCID) mutation in a non-obese diabetic background (NOD SCID; 6 to 8 week old; NOD.CB17-Prkdcscid/NCrCrl from Charles River Laboratories) received a subcutaneous (SC) implant of 7.5×10^6 DMS114 cells (in 1:1 matrigel (Trevigen, Cultrex BME Path Clear®, Lot #: 30625F14), total volume 200 μl) into the right flank. Tumor volume and body weight were measured twice a week. On Day 20 post implant, 64 mice were randomized, based on tumor size at a geometric mean (geomean) of about 160 mm^3, into 6 groups corresponding to dose (Table 1). Compounds were administered at 10 ml/kg by oral gavage (Compound 1; BID ( 7/17 hours apart)) or intraperitoneal injection (cisplatin), respectively. The cisplatin dosing schedule was once a week for 3 weeks (Q7Dx3) and started 7 days after the randomization and treatment initiation with Compound 1.
On Day 55, study groups 1, 2, 3 and 4 were terminated (Table 1). Tumor (snap frozen) samples were collected at 4 hours post last dose for pharmacodynamic (PD) analysis. […] Tumor samples from groups 5 and 6 were collected 3 hours post last dose depending on available tumor sizes. All procedures performed on these animals were in accordance with regulations and established guidelines and were reviewed and approved by Pfizer's Institutional Animal Care and Use Committee. • (iii) Data Interpretation: For each experiment, calculations were performed and graphs created in Microsoft Excel and GraphPad Prism version 7.02 respectively. The tumor volume was calculated as 0.5×length×width^2. Tumor growth inhibition (TGI) was determined by the formula: % TGI=[1−(Vtx−Vt0/Vcx−Vc0)]×100, where Vc, Vt are the geometric means of control and treated groups. X=day X on study and 0=initial day of dosing. ELISA Assay: • (i) Histone Extraction: Histone extraction was performed using the EpiQuick Histone Extraction Kit (Epigentek OP0006). Frozen tumor samples were cut and homogenized using cold mortar and pestle on dry-ice. The homogenized mixture was transferred to a 1.5 mL tube in 1× Pre-Lysis Buffer (200 mg/mL) containing phenylmethylsulfonyl fluoride (PMSF). Samples were gently mixed, incubated on ice for 15 minutes, and spun down at 3,000 rpm for 5 minutes at 4° C. The tissue pellet was resuspended in 3 volumes (approximately 200 μL per 100 mg of tissue) of lysis buffer from the Histone Extraction Kit, incubated on ice for 30 minutes, and spun down at 12,000 rpm for 5 minutes at 4° C. Balance-DTT buffer was prepared by adding DTT Solution to balance buffer at a 1:500 ratio. The supernatant (containing acid soluble proteins) was transferred to a new 1.5 mL tube and 0.3 volumes of Balance-dithiothreitol (DTT) buffer from the Histone Extraction Kit were immediately added to each sample. The tumor lysate was briefly sonicated for 4 cycles (30 seconds on and 30 seconds off) at high intensity using the Bioruptor Plus (Diagenode #601020001). Extracts were aliquoted and stored at −20° C. (short term) or −80° C. (long term). Protein concentration was quantified using the Coomassie Plus (Bradford) Assay Kit (Thermo #23236). • (ii) H3K27Me3 and Me2 ELISA Assay: Histone extracts were diluted to a final concentration of 400 ng (or 800 ng) in 100 μL of coating buffer (phosphate buffered saline (PBS) containing 0.05% bovine serum albumin (BSA)).

SMILES: N.N.[Cl][Pt][Cl] [cisplatin, reference compound]
- TGI by Day 55 (Compound 1 100 mg/kg BID PO, cisplatin 4 mg/kg IP Q7Dx3, alone or combined): 51%
- tumors regressed or progressed compared to the starting tumor burden (Day 55, Compound 1 100 mg/kg BID, cisplatin 4 mg/kg Q7Dx3): all tumors had progressed
- tumor regression sustained after cisplatin discontinuation (post Day 55, Compound 1 maintenance dosing in combination arm, no further treatment in cisplatin arm): progressed
- survival benefit, Log-rank test (Mantel-Cox) (survival cut-off at 500 mm^3 tumor burden): did not reach the P<0.05 significance level
- median survival (survival cut-off at 500 mm^3 tumor burden, Compound 1 100 mg/kg BID, cisplatin 4 mg/kg Q7Dx3): 37.5 days
